# Measurements from patent US20260215425A1, “NITRIFICATION INHIBITORS” (The University of Melbourne, priority 2022, published 2026).
# System: soils B-E
# Assay: soil incubation, N2O production in soils B-E
# Procedure: Soil incubations were performed in three replicates. Each sample consisted of 6 g of sieved soil (2 mm). The soil was air-dried after collection and pre-incubated prior to the experiment for seven days at 50% water holding capacity (WHC). The soil was transferred to a gas chromatography vial (22 mL volume, clear glass, Macherey-Nagel, Germany) and compacted densely to allow 5.5-6.2 cm headspace. The soil in the vials was incubated for a total of 21 days at a constant temperature of 21° C. with an open lid to ensure gas circulation. The control incubations contained ‘untreated’ soil (deionized H2O only) and ‘fertiliser only’ soil ((NH4)2SO4; 50 mg kg^−1 soil) and accompanied each measurement. (NH4)2SO4 was applied as an aqueous solution ([…]) and introduced on the soil surface to mimic field conditions. Three inhibitor solutions were prepared from DMP and 4-MPT at concentrations of 0.5 mol %, 2.5 mol % and 5 mol % of applied fertiliser-N and applied on the soil surface. The soils reached 60% WHC after the treatments had been applied and were kept at that moisture level by periodically adding deionized water to compensate for evaporation losses. At the day of measurement (day 1, 3, 5, 7, 14 and 21 after fertilization) the vials were closed gas-tight with a rubber septum and aluminium lid and opened again after each measurement. The N2O emission was analysed using a gas chromatograph equipped with an electron capture detector and flame ionization detector (GC-ECD/FID; Clarus 580, Perkin Elmer). A linear regression slope was used to calculate N2O—N production rates, F, according to eqn. 5:
# where ΔC/Δt represents the change of the N2O concentration over the time interval t in ppbv, V represents the headspace volume in L, M represents the molar mass of N in N2O, m represents the amount of soil in g dry weight, Vm represents the molar volume of ideal gases (22.414 L mol^−1) at 0° C. and 101.325 kPa, corrected for the gas sampler using T0 (273.15 K) and Ta (air temperature in K).
compound,measurement,setting,value
"Cc1c[nH]nc1C [DMP, 3,4-dimethylpyrazole, reference compound]",N2O production,"Soil B, 0.5 mol %, Day 1",0.318 ± 0.030 μg g^−1 soil h^−1
same,N2O production,"Soil B, 0.5 mol %, Day 3",0.189 ± 0.006 μg g^−1 soil h^−1
same,N2O production,"Soil B, 0.5 mol %, Day 5",0.151 ± 0.015 μg g^−1 soil h^−1
same,N2O production,"Soil B, 0.5 mol %, Day 7",0.086 ± 0.043 μg g^−1 soil h^−1
same,N2O production,"Soil B, 0.5 mol %, Day 14",0.136 ± 0.006 μg g^−1 soil h^−1
same,N2O production,"Soil B, 0.5 mol %, Day 21",0.019 ± 0.019 μg g^−1 soil h^−1
same,N2O production,"Soil B, 2.5 mol %, Day 1",0.224 ± 0.013 μg g^−1 soil h^−1
same,N2O production,"Soil B, 2.5 mol %, Day 3",0.124 ± 0.008 μg g^−1 soil h^−1
same,N2O production,"Soil B, 2.5 mol %, Day 5",0.060 ± 0.030 μg g^−1 soil h^−1
same,N2O production,"Soil B, 2.5 mol %, Day 7",0.045 ± 0.023 μg g^−1 soil h^−1
same,N2O production,"Soil B, 2.5 mol %, Day 14",0.113 ± 0.006 μg g^−1 soil h^−1
same,N2O production,"Soil B, 2.5 mol %, Day 21",0.127 ± 0.000 μg g^−1 soil h^−1
same,N2O production,"Soil B, 5 mol %, Day 1",0.209 ± 0.054 μg g^−1 soil h^−1
same,N2O production,"Soil B, 5 mol %, Day 3",0.067 ± 0.017 μg g^−1 soil h^−1
same,N2O production,"Soil B, 5 mol %, Day 5",0.058 ± 0.014 μg g^−1 soil h^−1
same,N2O production,"Soil B, 5 mol %, Day 7",0.020 ± 0.010 μg g^−1 soil h^−1
same,N2O production,"Soil B, 5 mol %, Day 14",0.052 ± 0.003 μg g^−1 soil h^−1
same,N2O production,"Soil B, 5 mol %, Day 21",0.037 ± 0.019 μg g^−1 soil h^−1
same,N2O production,"Soil C, 0.5 mol %, Day 1",0.283 ± 0.008 μg g^−1 soil h^−1
same,N2O production,"Soil C, 0.5 mol %, Day 3",0.183 ± 0.003 μg g^−1 soil h^−1
same,N2O production,"Soil C, 0.5 mol %, Day 5",0.081 ± 0.041 μg g^−1 soil h^−1
same,N2O production,"Soil C, 0.5 mol %, Day 7",0.162 ± 0.037 μg g^−1 soil h^−1
same,N2O production,"Soil C, 0.5 mol %, Day 14",0.105 ± 0.007 μg g^−1 soil h^−1
same,N2O production,"Soil C, 0.5 mol %, Day 21",0.101 ± 0.011 μg g^−1 soil h^−1
same,N2O production,"Soil C, 2.5 mol %, Day 1",0.276 ± 0.006 μg g^−1 soil h^−1
same,N2O production,"Soil C, 2.5 mol %, Day 3",0.161 ± 0.006 μg g^−1 soil h^−1
same,N2O production,"Soil C, 2.5 mol %, Day 5",0.133 ± 0.006 μg g^−1 soil h^−1
same,N2O production,"Soil C, 2.5 mol %, Day 7",0.113 ± 0.005 μg g^−1 soil h^−1
same,N2O production,"Soil C, 2.5 mol %, Day 14",0.086 ± 0.006 μg g^−1 soil h^−1
same,N2O production,"Soil C, 2.5 mol %, Day 21",0.089 ± 0.005 μg g^−1 soil h^−1
same,N2O production,"Soil C, 5 mol %, Day 1",0.228 ± 0.017 μg g^−1 soil h^−1
same,N2O production,"Soil C, 5 mol %, Day 3",0.125 ± 0.006 μg g^−1 soil h^−1
same,N2O production,"Soil C, 5 mol %, Day 5",0.099 ± 0.008 μg g^−1 soil h^−1
same,N2O production,"Soil C, 5 mol %, Day 7",0.098 ± 0.010 μg g^−1 soil h^−1
same,N2O production,"Soil C, 5 mol %, Day 14",0.085 ± 0.009 μg g^−1 soil h^−1
same,N2O production,"Soil C, 5 mol %, Day 21",0.095 ± 0.000 μg g^−1 soil h^−1
same,N2O production,"Soil D, 0.5 mol %, Day 1",0.131 ± 0.001 μg g^−1 soil h^−1
same,N2O production,"Soil D, 0.5 mol %, Day 3",0.133 ± 0.003 μg g^−1 soil h^−1
same,N2O production,"Soil D, 0.5 mol %, Day 5",0.063 ± 0.003 μg g^−1 soil h^−1
same,N2O production,"Soil D, 0.5 mol %, Day 7",0.112 ± 0.008 μg g^−1 soil h^−1
same,N2O production,"Soil D, 0.5 mol %, Day 14",0.072 ± 0.009 μg g^−1 soil h^−1
same,N2O production,"Soil D, 0.5 mol %, Day 21",0.098 ± 0.011 μg g^−1 soil h^−1
same,N2O production,"Soil D, 2.5 mol %, Day 1",0.073 ± 0.037 μg g^−1 soil h^−1
same,N2O production,"Soil D, 2.5 mol %, Day 3",0.120 ± 0.005 μg g^−1 soil h^−1
same,N2O production,"Soil D, 2.5 mol %, Day 5",0.067 ± 0.006 μg g^−1 soil h^−1
same,N2O production,"Soil D, 2.5 mol %, Day 7",0.115 ± 0.012 μg g^−1 soil h^−1
same,N2O production,"Soil D, 2.5 mol %, Day 14",0.070 ± 0.006 μg g^−1 soil h^−1
same,N2O production,"Soil D, 2.5 mol %, Day 21",0.063 ± 0.003 μg g^−1 soil h^−1
same,N2O production,"Soil D, 5 mol %, Day 1",0.114 ± 0.015 μg g^−1 soil h^−1
same,N2O production,"Soil D, 5 mol %, Day 3",0.112 ± 0.006 μg g^−1 soil h^−1
same,N2O production,"Soil D, 5 mol %, Day 5",0.039 ± 0.021 μg g^−1 soil h^−1
same,N2O production,"Soil D, 5 mol %, Day 7",0.102 ± 0.014 μg g^−1 soil h^−1
same,N2O production,"Soil D, 5 mol %, Day 14",0.056 ± 0.004 μg g^−1 soil h^−1
same,N2O production,"Soil D, 5 mol %, Day 21",0.069 ± 0.007 μg g^−1 soil h^−1
same,N2O production,"Soil E, 0.5 mol %, Day 1",0.053 ± 0.002 μg g^−1 soil h^−1
same,N2O production,"Soil E, 0.5 mol %, Day 3",0.037 ± 0.006 μg g^−1 soil h^−1
same,N2O production,"Soil E, 0.5 mol %, Day 5",0.015 ± 0.008 μg g^−1 soil h^−1
same,N2O production,"Soil E, 0.5 mol %, Day 7",0.000 ± 0.000 μg g^−1 soil h^−1
same,N2O production,"Soil E, 0.5 mol %, Day 14",0.000 ± 0.000 μg g^−1 soil h^−1
same,N2O production,"Soil E, 0.5 mol %, Day 21",0.000 ± 0.000 μg g^−1 soil h^−1
same,N2O production,"Soil E, 2.5 mol %, Day 1",0.080 ± 0.009 μg g^−1 soil h^−1
same,N2O production,"Soil E, 2.5 mol %, Day 3",0.014 ± 0.014 μg g^−1 soil h^−1
same,N2O production,"Soil E, 2.5 mol %, Day 5",0.000 ± 0.000 μg g^−1 soil h^−1
same,N2O production,"Soil E, 2.5 mol %, Day 7",0.000 ± 0.000 μg g^−1 soil h^−1
same,N2O production,"Soil E, 2.5 mol %, Day 14",0.008 ± 0.008 μg g^−1 soil h^−1
same,N2O production,"Soil E, 2.5 mol %, Day 21",0.000 ± 0.000 μg g^−1 soil h^−1
same,N2O production,"Soil E, 5 mol %, Day 1",0.045 ± 0.011 μg g^−1 soil h^−1
same,N2O production,"Soil E, 5 mol %, Day 3",0.011 ± 0.011 μg g^−1 soil h^−1
same,N2O production,"Soil E, 5 mol %, Day 5",0.000 ± 0.000 μg g^−1 soil h^−1
same,N2O production,"Soil E, 5 mol %, Day 7",0.000 ± 0.000 μg g^−1 soil h^−1
same,N2O production,"Soil E, 5 mol %, Day 14",0.007 ± 0.007 μg g^−1 soil h^−1
same,N2O production,"Soil E, 5 mol %, Day 21",0.000 ± 0.000 μg g^−1 soil h^−1
same,N2O production rate,"soil B, 0.5 mol % (lowest application rate), day 1",0.32 ng g^−1 soil h^−1
same,N2O production rate relative to the uninhibited soil,"soil B, 0.5 mol %, day 1",approximately 50%
same,N2O production rate relative to that in the absence of the inhibitor,"soil B, 2.5 mol %",approximately 67%
same,N2O production rate relative to that in the absence of the inhibitor,"soil B, 5 mol %",approximately 67%
same,N2O formation rate compared to the uninhibited soil,"soil C, 0.5 mol % and 2.5 mol %, first two weeks (P>0.05)",did not show a significantly reduced N2O formation rate
same,N2O production rate,"soil C, highest application rate (5 mol %), day 21",0.095 ng g^−1 soil h^−1
same,N2O production rates compared to the uninhibited soil,soil D (P>0.05),No significant difference
same,N2O production beyond day 5,"soil E, 5 mol %",no N2O production was detected
